From publication PMC7501296, “Rapid and direct control of target protein levels with VHL-recruiting dTAG molecules” (Nature Communications, 2020)

Target: T1, FKBP12^F36V-KRAS^G12V (Homo sapiens, UniProt P01116+P62942, F37V/G12V)
T1 construct: KRAS G12V (fusion partner, same polypeptide); expressed in transfected cells
Test: Immunoblot of PATU-8902 FKBP12F36V-KRASG12V; KRAS-/- clone
Format: cell-based
Details: pretreated 2 h prior to dTAGV-1 for 4 h
Description: PATU-8902 LACZ-FKBP12^F36V and FKBP12^F36V-KRAS^G12V; KRAS^−/− cells and 293T cells were lysed with RIPA buffer supplemented with cOmplete protease inhibitors (Roche), PhosSTOP phosphatase inhibitors (Roche), and 0.1% benzonase (Novagen). Proteins were separated using NuPAGE Bolt^TM Bis–Tris gels (Thermo Fisher Scientific) and transferred to nitrocellulose membranes, which were blocked with Odyssey Blocking Buffer (LI-COR) and incubated with primary antibodies overnight. Membranes were washed three times with TBS-T, incubated with the appropriate fluorescently labeled infrared secondary antibodies, washed again three times with TBS-T, and assessed using an Odyssey CLx Imager (LI-COR)[6],[15]. EWS502 cells were lysed with Cell Lysis Buffer (Cell Signaling Technology) supplemented with cOmplete protease inhibitors (Roche). Proteins were separated using SDS-PAGE gels and transferred to PVDF membranes, which were blocked with 5% milk in TBS-T and incubated with primary antibodies overnight. Membranes were washed five times with TBS-T, incubated with the appropriate horseradish peroxidase-conjugated secondary antibodies, washed again five times with TBS-T, and imaged. The following primary antibodies were employed in this study: HA (Cell Signaling Technology #3724 and #2367, dilution at 1:1000), phospho-ERK1/2 T202/Y204 (Cell Signaling Technology #4370, dilution at 1:1000), ERK1/2 (Cell Signaling Technology #4696, dilution at 1:1000), phospho-AKT S473 (Cell Signaling Technology #4060, dilution at 1:1000), AKT (Cell Signaling Technology #2920, dilution at 1:1000), FKBP12 (Abcam #ab24373, dilution at 1:1000), GFP (Cell Signaling Technology #2555, dilution at 1:1000), FLI (Abcam #ab15289, dilution at 1:2000), NKX2-2 (Abcam #ab187375, dilution at 1:1000), GAPDH (Cell Signaling Technology #2118, dilution at 1:3000), Vinculin (Cell Signaling Technology #13901, dilution at 1:3000), β-Actin (Cell Signaling Technology #58169, dilution at 1:3000), and α-Tubulin (Cell Signaling Technology #3873, dilution at 1:5000). Species-specific fluorescently labeled infrared secondary antibodies including IRDye 680LT anti-Mouse IgG (LI-COR #926-68020, dilution at 1:5000), IRDye 800CW anti-Mouse IgG (LI-COR #926-32210, dilution at 1:5000), IRDye 680LT anti-Rabbit IgG (LI-COR #926-68021, dilution at 1:5000), and IRDye 800CW anti-Rabbit IgG (LI-COR #926-32211, dilution at 1:5000) and peroxidase-linked secondary antibodies including anti-Mouse IgG (Thermo Fisher Scientific #45000680, dilution at 1:5000) and anti-Rabbit IgG (Thermo Fisher Scientific #45000682, dilution at 1:5000) were employed as appropriate.

T1 sequence (P62942+P01116 fused P62942:F37V/P01116:G12V): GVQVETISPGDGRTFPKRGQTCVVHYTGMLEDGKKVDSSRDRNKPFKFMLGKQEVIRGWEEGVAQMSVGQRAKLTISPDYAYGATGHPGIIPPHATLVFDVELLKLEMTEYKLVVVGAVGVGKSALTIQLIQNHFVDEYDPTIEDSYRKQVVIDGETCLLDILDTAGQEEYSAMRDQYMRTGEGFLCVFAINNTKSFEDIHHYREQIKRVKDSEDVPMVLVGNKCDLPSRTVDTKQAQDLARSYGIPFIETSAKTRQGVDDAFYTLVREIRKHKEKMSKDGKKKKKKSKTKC

Row | Compound | Effect of pre-treatment on dTAGV-1-induced KRASG12V degradation
1 | CC(C)C[C@H](NC(=O)[C@H](CCc1ccccc1)NC(=O)CN1CCOCC1)C(=O)N[C@@H](Cc1ccccc1)C(=O)N[C@@H](CC(C)C)C(=O)[C@@]1(C)CO1 [carfilzomib] | rescued
2 | NS(=O)(=O)OC[C@@H]1C[C@@H](n2ccc3c(N[C@H]4CCc5ccccc54)ncnc32)C[C@@H]1O [MLN4924] | rescued
